Data reported in patent US20110003867A1, “NOVEL 2-ETHYL-METHYL-AMINO-3-AMIDO-6-AMINO-PYRIDINE DERIVATIVES USEFUL AS POTASSIUM CHANNEL ACTIVATORS” (NeuroSearch A/S, priority 2007, published 2011).

Molecular target: T1, human Kv72+3 channels (Homo sapiens, UniProt O43525+O43526)
T1 construct: expressed in transfected cells
Assay: Patch-clamp on HEK293 cell lines stably expressing human Kv7.2+3 channels
Assay type: cell-based
Details: conc. 0.03 μM, −30 mV, 20 ms; baseline current defined as 100%; HEK293 cells
From the text: The effect obtained by these channel activators is described as a percentage increase in baseline current at a given concentration. The baseline current is defined as 100%, and an increase in current is expressed relative to this, i.e. an increase from 1 nA to 1.2 nA is reported as 120%.

Row | Structure (SMILES) | I^K(%) increase in baseline current
1 | CCN(C)c1nc(NCc2ccc(F)cc2)ccc1NC(=O)[C@@H]1C[C@H]1c1ccccc1 (relative stereo) [Compound 6, trans-2-Phenyl-cyclopropanecarboxylic acid [2-Ethylmethylamino-6-(4-fluoro-benzylamino)-pyridin-3-yl]-amide] | 285%
2 | CN(C)c1nc(NCc2ccc(F)cc2)ccc1NC(=O)Cc1cc(F)cc(F)c1 [Compound 1, N-[2-Dimethylamino-6-(4-fluoro-benzylamino)-pyridin-3-yl]-2-(3,5-difluoro-phenyl)-acetamide] | 685%
3 | CCN(C)c1nc(NCc2ccc(F)cc2)ccc1NC(=O)Cc1ccc(C(F)(F)F)c(F)c1 [Compound 3, N-[2-Ethylnnethylamino-6-(4-fluoro-benzylamino)-pyridin-3-yl]-2-(3-fluoro-4-trifluoromethyl-phenyl)-acetamide] | 268%
4 | CCN(C)c1nc(NCc2ccc(F)cc2)ccc1NC(=O)CC(C)(C)C [Compound 8, N-[2-Ethylmethylamino-6-(4-fluoro-benzylamino)-pyridin-3-yl]-3,3-dimethyl-butyramide] | 105%
5 | CCN(C)c1nc(NCC(C)C)ccc1NC(=O)Cc1cc(F)cc(F)c1 [Compound 11, 2-(3,5-Difluoro-phenyl)-N-[2-(ethyl-methyl-amino)-6-isobutylamino-pyridin-3-yl]-acetamide] | 548%
